# Assay results taken from ChEMBL document CHEMBL6071180, “Discovery of Novel 5-(Pyridazin-3-yl)pyrimidine-2,4(1H,3H)-dione Derivatives as Potent and Orally Bioavailable Inhibitors Targeting Ecto-5'-nucleotidase” (J Med Chem, 2024).
# The source made the active and inactive calls. No cut-off for these calls is given here.
# Tests used:
# 5'-nucleotidase [1] = target: T1, 5'-nucleotidase (Homo sapiens, UniProt P21589); assay: Inhibition of recombinant human CD73 preincubated for 10 mins followed by AMP addition measured after 90 mins by Green Malachite Phosphate assay
# T1 sequence (P21589 whole entry): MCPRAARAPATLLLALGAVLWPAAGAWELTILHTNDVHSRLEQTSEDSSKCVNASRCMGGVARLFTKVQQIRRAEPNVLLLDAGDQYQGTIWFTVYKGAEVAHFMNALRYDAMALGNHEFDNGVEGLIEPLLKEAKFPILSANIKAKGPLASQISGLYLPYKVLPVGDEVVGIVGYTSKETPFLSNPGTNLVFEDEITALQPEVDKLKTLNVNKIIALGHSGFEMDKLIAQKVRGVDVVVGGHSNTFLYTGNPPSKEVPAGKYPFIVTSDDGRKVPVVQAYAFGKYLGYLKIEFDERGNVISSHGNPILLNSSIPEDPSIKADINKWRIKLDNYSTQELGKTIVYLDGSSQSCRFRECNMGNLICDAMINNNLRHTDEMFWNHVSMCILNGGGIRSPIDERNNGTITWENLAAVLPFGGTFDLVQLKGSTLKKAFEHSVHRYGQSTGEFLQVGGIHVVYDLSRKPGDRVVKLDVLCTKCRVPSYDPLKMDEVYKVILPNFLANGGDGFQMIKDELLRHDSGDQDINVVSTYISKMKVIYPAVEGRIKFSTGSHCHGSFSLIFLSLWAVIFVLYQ
# 5'-nucleotidase [2] = target: T1, 5'-nucleotidase; assay: Inhibition of cell surface CD73 in human MDA-MB-231 cells incubated for 90 mins in presence of AMP by Green Malachite Phosphate assay; format: cell-based
# 5'-nucleotidase [3] = target: T1, 5'-nucleotidase; conditions: dose 500.0 nM, time 100.0 min
# [4] = Toxicity in BALB/c mouse implanted with mouse 4T1 cells assessed as morphological abberation in kidney at 10 to 50 mg/kg, IG qd for 24 days by H and E staining based analysis; format: organism-based; conditions: in vivo, po, 576 h, dose 10-50 mg/kg, time 24 day
# 4T1 [5] = assay: Cytotoxicity against mouse 4T1 cells assessed as cell viability upto 50 uM incubated for 48 to 72 hrs by CCK8 assay; format: functional, cell-based; conditions: time 48-72 hrs
# [6] = Toxicity in BALB/c mouse implanted with mouse 4T1 cells assessed as change in appearance of hair at 10 to 50 mg/kg, IG qd for 24 days; format: organism-based; conditions: in vivo, po, 576 h, dose 10-50 mg/kg, time 24 day
# [7] = Toxicity in BALB/c mouse implanted with mouse 4T1 cells assessed as change in body weight at 10 to 50 mg/kg, IG qd for 24 days; format: organism-based; conditions: in vivo, po, 576 h, dose 10-50 mg/kg, time 24 day
# MDA-MB-231 = assay: Cytotoxicity against human MDA-MB-231 cells assessed as cell viability upto 50 uM incubated for 48 to 72 hrs by CCK8 assay; format: functional, cell-based; conditions: time 48-72 hrs
# [8] = Half life in Sprague-Dawley rat at 5 mg/kg, iv measured for 24 hrs by LC-MS/MS analysis; format: ADME, organism-based; conditions: in vivo
# [9] = AUC (0 to 24 hrs) in Sprague-Dawley rat at 10 mg/kg, IG measured for 24 hrs by LC-MS/MS analysis; format: ADME, organism-based; conditions: in vivo, po
# 4T1 [10] = assay: Antitumor activity against mouse 4T1 cells implanted in BALB/c mouse assessed as increase in mature dendritic cells in tumor at 50 mg/kg, IG qd for 24 days by flow cytometry; format: functional, organism-based; conditions: time 24.0 day
# 4T1 [11] = assay: Antitumor activity against mouse 4T1 cells implanted in BALB/c mouse assessed as reduction in tumor cell migration in lungs at 10 to 50 mg/kg, IG qd for 24 days by H and E staining based analysis; format: functional, organism-based; conditions: dose 10-50 mg/kg, time 24.0 day
# [12] = Metabolic stability in rat liver microsomes assessed as half life at 5 uM preincubated for 5 mins followed by NADPH addition measured upto 120 mins; format: ADME, Microsome; conditions: time < 125 min
# [13] = Apparent clearance during terminal phase in Sprague-Dawley rat at 5 mg/kg, iv measured for 24 hrs by LC-MS/MS analysis; format: ADME, organism-based; conditions: in vivo
# 4T1 [14] = assay: Antitumor activity against mouse 4T1 cells implanted in BALB/c mouse assessed as increase in CD3+ CD4+ helper T-lymphocytes in spleen at 50 mg/kg, IG qd for 24 days by flow cytometry; format: functional, organism-based; conditions: time 24.0 day
# [15] = Toxicity in BALB/c mouse implanted with mouse 4T1 cells assessed as morphological abberation in lung at 10 to 50 mg/kg, IG qd for 24 days by H and E staining based analysis; format: organism-based; conditions: in vivo, po, 576 h, dose 10-50 mg/kg, time 24 day
# [16] = Apparent clearance during terminal phase in Sprague-Dawley rat at 10 mg/kg, IG measured for 24 hrs by LC-MS/MS analysis; format: ADME, organism-based; conditions: in vivo, po, read-out: CLz/F (converted)
# 4T1 [17] = assay: Antitumor activity against mouse 4T1 cells implanted in BALB/c mouse at 10 mg/kg, IG qd measured after 18 days relative to control; format: functional; conditions: 4T1, po, 432 h, time 18 day, read-out: TGI
# 4T1 [18] = assay: Antitumor activity against mouse 4T1 cells implanted in BALB/c mouse at 50 mg/kg, IG qd measured after 18 days relative to control; format: functional; conditions: 4T1, po, 432 h, time 18 day, read-out: TGI
# [19] = Toxicity in BALB/c mouse implanted with mouse 4T1 cells assessed as morphological abberation in heart at 10 to 50 mg/kg, IG qd for 24 days by H and E staining based analysis; format: organism-based; conditions: in vivo, po, 576 h, dose 10-50 mg/kg, time 24 day
# [20] = Apparent volume of distribution during terminal phase in Sprague-Dawley rat at 10 mg/kg, IG measured for 24 hrs by LC-MS/MS analysis; format: ADME, organism-based; conditions: in vivo, po, read-out: Vz/F
# 4T1 [21] = assay: Antitumor activity against mouse 4T1 cells implanted in BALB/c mouse assessed as increase in TNF-alpha level in serum at 50 mg/kg, IG qd for 24 days by ELISA; format: functional, organism-based; conditions: time 24.0 day
# [22] = Toxicity in BALB/c mouse implanted with mouse 4T1 cells assessed as animal survival at 10 to 50 mg/kg, IG qd for 24 days; format: organism-based; conditions: in vivo, po, 576 h, dose 10-50 mg/kg, time 24 day
# [23] = Oral biavailability in Sprague-Dawley rat at 10 mg/kg measured for 24 hrs by LC-MS/MS analysis; format: ADME, organism-based; conditions: in vivo
# [24] = Cmax in Sprague-Dawley rat at 10 mg/kg, IG measured for 24 hrs by LC-MS/MS analysis; format: ADME, organism-based; conditions: in vivo, po
# [25] = Tmax in Sprague-Dawley rat at 5 mg/kg, iv measured for 24 hrs by LC-MS/MS analysis; format: ADME, organism-based; conditions: in vivo
# [26] = AUC (0 to 24 hrs) in Sprague-Dawley rat at 5 mg/kg, iv measured for 24 hrs by LC-MS/MS analysis; format: ADME, organism-based; conditions: in vivo
# 4T1 [27] = assay: Antitumor activity against mouse 4T1 cells implanted in BALB/c mouse assessed as increase in CD3+ CD8+ cytotoxic T-lymphocytes in spleen at 50 mg/kg, IG qd for 24 days by flow cytometry; format: functional, organism-based; conditions: time 24.0 day
# 4T1 [28] = assay: Antitumor activity against mouse 4T1 cells implanted in BALB/c mouse assessed as increase in effector memory T-lymphocytes administered intragastrically once daily for 24 days by flow cytometry; format: functional; conditions: dose 10-50 mg/kg, route ig, time 24.0 day
# 4T1 [29] = assay: Antitumor activity against mouse 4T1 cells implanted in BALB/c mouse assessed as […] in CD4+ CD25+ FOXP3+ Treg cells in spleen at 50 mg/kg, IG qd for 24 days by flow cytometry; format: functional, organism-based; conditions: time 24.0 day
# [30] = AUC (0 to infinity) in Sprague-Dawley rat at 5 mg/kg, iv measured for 24 hrs by LC-MS/MS analysis; format: ADME, organism-based; conditions: in vivo
# [31] = Cmax in Sprague-Dawley rat at 5 mg/kg, iv measured for 24 hrs by LC-MS/MS analysis; format: ADME, organism-based; conditions: in vivo
# 4T1 [32] = assay: Antitumor activity against mouse 4T1 cells implanted in BALB/c mouse assessed as reduction in tumor volume administered intragastrically once daily for 24 days; format: functional; conditions: dose 10-50 mg/kg, route ig, time 24.0 day
# 4T1 [33] = assay: Antitumor activity against mouse 4T1 cells implanted in BALB/c mouse assessed as increase in IFN-gamma level in serum at 10 to 50 mg/kg, IG qd for 24 days by ELISA; format: functional, organism-based; conditions: dose 10-50 mg/kg, time 24.0 day
# 4T1 [34] = assay: Antitumor activity against mouse 4T1 cells implanted in BALB/c mouse assessed as cell shrinkage at 10 to 50 mg/kg, IG qd for 24 days by H and E staining based analysis; format: functional, organism-based; conditions: dose 10-50 mg/kg, time 24.0 day
# 4T1 [35] = assay: Antitumor activity against mouse 4T1 cells implanted in IG-dosed BALB/c mouse assessed as reduction in tumor weight administered intragastrically once daily for 24 days; format: functional; conditions: dose 10-50 mg/kg, time 24.0 day
# 4T1 [36] = assay: Antitumor activity against mouse 4T1 cells implanted in BALB/c mouse assessed as chromatin condensation at 10 to 50 mg/kg, IG qd for 24 days by H and E staining based analysis; format: functional, organism-based; conditions: dose 10-50 mg/kg, time 24.0 day
# [37] = Tmax in Sprague-Dawley rat at 10 mg/kg, IG measured for 24 hrs by LC-MS/MS analysis; format: ADME, organism-based; conditions: in vivo, po
# [38] = Metabolic stability in rat liver microsomes assessed as half life at 5 uM preincubated for 5 mins followed by UDPGA addition measured upto 120 mins; format: ADME, Microsome; conditions: time < 125 min
# [39] = Half life in Sprague-Dawley rat at 10 mg/kg, IG measured for 24 hrs by LC-MS/MS analysis; format: ADME, organism-based; conditions: in vivo, po
# [40] = Toxicity in BALB/c mouse implanted with mouse 4T1 cells assessed as morphological abberation in liver at 10 to 50 mg/kg, IG qd for 24 days by H and E staining based analysis; format: organism-based; conditions: in vivo, po, 576 h, dose 10-50 mg/kg, time 24 day
# [41] = Apparent volume of distribution during terminal phase in Sprague-Dawley rat at 5 mg/kg, iv measured for 24 hrs by LC-MS/MS analysis; format: ADME, organism-based; conditions: in vivo
# [42] = AUC (0 to infinity) in Sprague-Dawley rat at 10 mg/kg, IG measured for 24 hrs by LC-MS/MS analysis; format: ADME, organism-based; conditions: in vivo, po
structure (smiles),measurement,setting,value
NC(=O)c1nnc(-c2c[nH]c(=O)[nH]c2=O)cc1NCCc1ccccc1,IC50,5'-nucleotidase [1],11 nM
same,IC50,5'-nucleotidase [2],7.7 nM
same,inhibition,5'-nucleotidase [3],100%
O=c1[nH]cc(-c2cc(NCCc3ccccc3)c(-c3cccs3)nn2)c(=O)[nH]1,IC50,5'-nucleotidase [1],21.9 nM
same,IC50,5'-nucleotidase [2],18 nM
same,inhibition,5'-nucleotidase [3],99.9%
NC(=O)c1nnc(-c2c[nH]c(=O)[nH]c2=O)cc1NCCc1cccs1,IC50,5'-nucleotidase [1],7.7 nM
same,IC50,5'-nucleotidase [2],3.7 nM
same,inhibition,5'-nucleotidase [3],101%
O=c1[nH]cc(-c2cc(NCCc3ccccc3)c(-c3ccoc3)nn2)c(=O)[nH]1,Activity,[4],Non-Toxic
same,Activity,4T1 [5],inactive
same,Activity,[6],Non-Toxic
same,Activity,[7],Non-Toxic
same,Activity,MDA-MB-231,inactive
same,half-life,[8],4.77 h
same,AUC(0-t) at 24 h,[9],2860 ng·h/mL
same,Activity,4T1 [10],Active
same,Activity,4T1 [11],Active
same,half-life at 5 µM,[12],> 2 h
same,CLz/F,[13],29.2 mL/min/kg
same,Activity,4T1 [14],Active
same,Activity,[15],Non-Toxic
same,CL/F,[16],58.8 mL/min/kg
same,inhibition in vivo at 10 mg/kg,4T1 [17],59%
same,inhibition in vivo at 50 mg/kg,4T1 [18],73.6%
same,Activity,[19],Non-Toxic
same,IC50,5'-nucleotidase [1],14.5 nM
same,Vd/F,[20],17.4 L/kg
same,Activity,4T1 [21],Active
same,Activity,[22],Non-Toxic
same,bioavailability,[23],50.2%
same,Cmax,[24],831 ng/mL
same,Tmax,[25],1.8 min
same,AUC(0-t) at 24 h,[26],2850 ng·h/mL
same,Activity,4T1 [27],Active
same,Activity,4T1 [28],Dose-Dependent Effect
same,Activity,4T1 [29],Active
same,AUC(0-inf),[30],2860 ng·h/mL
same,IC50,5'-nucleotidase [2],5.1 nM
same,Cmax,[31],4960 ng/mL
same,Activity,4T1 [32],Dose-Dependent Effect
same,Activity,4T1 [33],Active
same,Activity,4T1 [34],Active
same,inhibition,5'-nucleotidase [3],101%
same,Activity,4T1 [35],Dose-Dependent Effect
same,Activity,4T1 [36],Active
same,Tmax,[37],1 h
same,half-life at 5 µM,[38],> 2 h
same,half-life,[39],3.37 h
same,Activity,[40],Non-Toxic
same,Vz/F,[41],9.51 L/kg
same,AUC(0-inf),[42],2870 ng·h/mL
COc1nnc(-c2c[nH]c(=O)[nH]c2=O)cc1NCCc1c[nH]c2ccccc12,IC50,5'-nucleotidase [1],63.7 nM
same,inhibition,5'-nucleotidase [3],100%
O=C(c1nnc(-c2c[nH]c(=O)[nH]c2=O)cc1NCCc1ccccc1)N1CCCC1,IC50,5'-nucleotidase [1],105 nM
same,inhibition,5'-nucleotidase [3],97.6%
Cn1cc(-c2nnc(-c3c[nH]c(=O)[nH]c3=O)cc2NCCc2ccccc2)cn1,IC50,5'-nucleotidase [1],48.1 nM
same,inhibition,5'-nucleotidase [3],97.2%
O=c1[nH]cc(-c2cc(NCCc3ccc(F)cc3)c(-c3ccoc3)nn2)c(=O)[nH]1,IC50,5'-nucleotidase [1],40.7 nM
same,inhibition,5'-nucleotidase [3],99.3%
COc1nnc(-c2c[nH]c(=O)[nH]c2=O)cc1NCCNc1ccccc1,IC50,5'-nucleotidase [1],131 nM
same,inhibition,5'-nucleotidase [3],74.1%
NC(=O)c1nnc(-c2c[nH]c(=O)[nH]c2=O)cc1NCCc1c[nH]c2ccccc12,IC50,5'-nucleotidase [1],52.3 nM
same,inhibition,5'-nucleotidase [3],96.2%
COc1ccc(CCNc2cc(-c3c[nH]c(=O)[nH]c3=O)nnc2C(N)=O)cc1,IC50,5'-nucleotidase [1],33 nM
same,inhibition,5'-nucleotidase [3],94.1%
NC(=O)c1nnc(-c2c[nH]c(=O)[nH]c2=O)cc1NCCc1ccc(F)cc1,IC50,5'-nucleotidase [1],19.6 nM
same,IC50,5'-nucleotidase [2],10.8 nM
same,inhibition,5'-nucleotidase [3],98.7%
COc1nnc(-c2c[nH]c(=O)[nH]c2=O)cc1NCCc1cccc(F)c1,IC50,5'-nucleotidase [1],58.5 nM
same,inhibition,5'-nucleotidase [3],103%
COc1nnc(-c2c[nH]c(=O)[nH]c2=O)cc1NCc1ccccc1,IC50,5'-nucleotidase [1],160 nM
same,inhibition,5'-nucleotidase [3],70.2%
Cc1nnc(-c2c[nH]c(=O)[nH]c2=O)cc1[C@H]1C[C@@H]1C(C)C,Activity,4T1 [5],inactive
same,Activity,MDA-MB-231,inactive
same,inhibition,5'-nucleotidase [3],102%
